Assay [1] has as its target Mitotic checkpoint serine/threonine-protein kinase BUB1 (Homo sapiens, UniProt O43683). The assay can be described thus: Selectivity interaction (Ambit KINOMEscan and KiNATiv profiling in Jurkat cells) EUB0000090b BUB1. It counts as cell-based. The conditions noted are these: at 1 µM.
Assay [2] concerns Tyrosine-protein kinase ABL1 (Homo sapiens), P00519 [Y253F]. The assay can be described thus: (§1) Selectivity interaction (SelectScreen profiling (Invitrogen)) EUB0000607a ABL1. The conditions noted are these: at 2 µM.
Assay [3] concerns the target Tyrosine-protein kinase ABL1 (Homo sapiens, UniProt P00519). The assay is described as §1. To be noted: at 2 µM.
Assay [4] has as its system Tyrosine-protein kinase ABL1 (Homo sapiens), P00519 [T315I]. The description is as §1. The conditions noted are these: at 2 µM.
The test system of assay [5] is Tyrosine-protein kinase ABL1 (Homo sapiens), P00519 [G250E]. The description is as §1. To be noted: at 2 µM.
The target in assay [6] is Microtubule-associated serine/threonine-protein kinase 1 (Homo sapiens) (UniProt Q9Y2H9). The assay can be described thus: Selectivity interaction (KinomeScan (DiscoverX)) EUB0000607a MAST1. The conditions noted are these: at 10 µM.
Chain of Microtubule-associated serine/threonine-protein kinase 1 (Homo sapiens) (Q9Y2H9 whole entry, looked up): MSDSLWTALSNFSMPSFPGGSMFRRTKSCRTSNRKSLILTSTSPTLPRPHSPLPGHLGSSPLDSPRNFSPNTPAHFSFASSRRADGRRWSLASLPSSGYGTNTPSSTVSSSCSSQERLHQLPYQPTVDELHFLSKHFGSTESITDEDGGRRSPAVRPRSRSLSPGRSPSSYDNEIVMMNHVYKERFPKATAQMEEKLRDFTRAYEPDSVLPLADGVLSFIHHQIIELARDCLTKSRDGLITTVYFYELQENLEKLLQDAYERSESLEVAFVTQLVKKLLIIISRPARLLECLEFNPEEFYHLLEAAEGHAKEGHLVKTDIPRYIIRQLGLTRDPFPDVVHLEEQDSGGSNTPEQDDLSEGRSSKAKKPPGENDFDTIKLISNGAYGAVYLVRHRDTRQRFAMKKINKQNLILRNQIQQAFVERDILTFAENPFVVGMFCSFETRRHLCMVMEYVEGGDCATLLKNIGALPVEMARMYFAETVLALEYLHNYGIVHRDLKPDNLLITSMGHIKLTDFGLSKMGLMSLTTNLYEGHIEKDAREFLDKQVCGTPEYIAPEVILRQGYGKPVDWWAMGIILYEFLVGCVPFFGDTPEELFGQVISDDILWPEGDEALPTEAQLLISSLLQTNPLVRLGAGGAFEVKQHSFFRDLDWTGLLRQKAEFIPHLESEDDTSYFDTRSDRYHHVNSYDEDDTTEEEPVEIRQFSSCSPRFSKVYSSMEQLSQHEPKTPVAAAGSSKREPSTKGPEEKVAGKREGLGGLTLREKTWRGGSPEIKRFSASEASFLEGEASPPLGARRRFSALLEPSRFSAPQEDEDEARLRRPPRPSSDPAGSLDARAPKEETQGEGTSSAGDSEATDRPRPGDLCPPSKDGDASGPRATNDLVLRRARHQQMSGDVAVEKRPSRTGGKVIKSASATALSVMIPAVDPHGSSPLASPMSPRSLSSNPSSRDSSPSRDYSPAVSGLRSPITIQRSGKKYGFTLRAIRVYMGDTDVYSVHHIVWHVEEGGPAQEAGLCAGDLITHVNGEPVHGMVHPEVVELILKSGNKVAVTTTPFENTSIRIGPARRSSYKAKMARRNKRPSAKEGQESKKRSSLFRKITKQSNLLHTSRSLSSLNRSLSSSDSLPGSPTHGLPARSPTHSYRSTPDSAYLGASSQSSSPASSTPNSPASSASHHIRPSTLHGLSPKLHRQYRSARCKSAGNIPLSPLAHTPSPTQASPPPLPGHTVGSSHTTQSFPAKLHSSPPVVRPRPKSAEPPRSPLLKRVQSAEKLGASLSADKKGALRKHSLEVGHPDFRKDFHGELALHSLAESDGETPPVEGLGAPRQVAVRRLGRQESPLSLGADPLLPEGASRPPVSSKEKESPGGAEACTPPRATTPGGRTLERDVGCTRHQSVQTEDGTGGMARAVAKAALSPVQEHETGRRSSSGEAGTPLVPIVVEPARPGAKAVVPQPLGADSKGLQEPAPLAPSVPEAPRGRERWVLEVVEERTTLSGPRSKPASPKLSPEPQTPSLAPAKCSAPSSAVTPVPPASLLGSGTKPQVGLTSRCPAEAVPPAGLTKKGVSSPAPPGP
Assay [7] addresses T1, Serine/threonine-protein kinase PLK4 (Homo sapiens) (UniProt O00444).
T1 sequence (whole entry): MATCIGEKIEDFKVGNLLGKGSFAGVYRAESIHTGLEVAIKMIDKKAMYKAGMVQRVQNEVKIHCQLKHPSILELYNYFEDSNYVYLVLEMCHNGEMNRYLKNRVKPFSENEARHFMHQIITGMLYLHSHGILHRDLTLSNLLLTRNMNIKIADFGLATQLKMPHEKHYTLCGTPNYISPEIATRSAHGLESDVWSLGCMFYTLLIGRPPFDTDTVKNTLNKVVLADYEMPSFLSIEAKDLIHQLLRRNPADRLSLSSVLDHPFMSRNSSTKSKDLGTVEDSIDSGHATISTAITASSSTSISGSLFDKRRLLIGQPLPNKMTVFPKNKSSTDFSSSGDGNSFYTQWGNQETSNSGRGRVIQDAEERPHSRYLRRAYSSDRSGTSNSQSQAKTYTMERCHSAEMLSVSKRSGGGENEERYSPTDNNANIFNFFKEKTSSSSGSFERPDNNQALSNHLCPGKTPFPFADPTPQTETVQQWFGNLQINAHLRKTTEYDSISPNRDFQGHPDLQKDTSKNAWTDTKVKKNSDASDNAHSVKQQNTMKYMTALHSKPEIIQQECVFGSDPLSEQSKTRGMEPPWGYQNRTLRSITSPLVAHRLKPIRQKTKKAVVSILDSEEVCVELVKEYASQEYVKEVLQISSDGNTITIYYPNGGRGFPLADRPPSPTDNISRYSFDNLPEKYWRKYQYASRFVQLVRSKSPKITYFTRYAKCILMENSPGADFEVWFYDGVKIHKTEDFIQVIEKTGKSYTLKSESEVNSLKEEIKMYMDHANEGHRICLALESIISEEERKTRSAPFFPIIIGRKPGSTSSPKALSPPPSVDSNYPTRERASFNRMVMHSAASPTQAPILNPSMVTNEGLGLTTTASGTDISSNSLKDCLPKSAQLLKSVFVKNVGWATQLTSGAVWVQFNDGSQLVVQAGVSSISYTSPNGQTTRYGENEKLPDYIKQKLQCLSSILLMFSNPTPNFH
Briefly: Selectivity interaction (KinomeScan (DiscoverX)) EUB0000666a PLK4. To be noted: at 10 µM.

Assay [8] addresses Activin receptor type-2A (Homo sapiens) (UniProt P27037). Briefly: Selectivity interaction (KinomeScan (DiscoverX)) EUB0000666a ACVR2A. To be noted: at 10 µM.
For assay [9], the target named is G protein-coupled receptor kinase 4 (Homo sapiens) (UniProt P32298). Briefly: Selectivity interaction (KinomeScan (DiscoverX)) EUB0000655a GRK4. The conditions noted are these: at 10 µM.
Chain of G protein-coupled receptor kinase 4 (Homo sapiens) (P32298 whole entry, looked up): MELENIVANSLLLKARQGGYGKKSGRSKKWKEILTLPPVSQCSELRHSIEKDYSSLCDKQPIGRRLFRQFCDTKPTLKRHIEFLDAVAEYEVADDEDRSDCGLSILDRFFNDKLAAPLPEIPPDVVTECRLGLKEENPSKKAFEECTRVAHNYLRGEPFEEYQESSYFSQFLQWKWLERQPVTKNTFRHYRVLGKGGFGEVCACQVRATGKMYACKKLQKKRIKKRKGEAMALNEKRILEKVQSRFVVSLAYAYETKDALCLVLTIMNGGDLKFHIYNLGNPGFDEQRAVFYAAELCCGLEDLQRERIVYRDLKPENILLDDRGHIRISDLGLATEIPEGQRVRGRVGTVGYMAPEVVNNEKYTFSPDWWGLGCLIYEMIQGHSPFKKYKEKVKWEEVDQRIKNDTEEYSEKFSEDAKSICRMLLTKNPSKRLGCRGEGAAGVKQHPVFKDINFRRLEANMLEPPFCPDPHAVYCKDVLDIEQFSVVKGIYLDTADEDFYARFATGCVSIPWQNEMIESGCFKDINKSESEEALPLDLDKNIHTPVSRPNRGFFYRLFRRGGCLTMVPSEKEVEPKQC
The target in assay [10] is T2, Serine/threonine-protein kinase ICK (Homo sapiens) (UniProt Q9UPZ9).
T2 sequence (whole entry): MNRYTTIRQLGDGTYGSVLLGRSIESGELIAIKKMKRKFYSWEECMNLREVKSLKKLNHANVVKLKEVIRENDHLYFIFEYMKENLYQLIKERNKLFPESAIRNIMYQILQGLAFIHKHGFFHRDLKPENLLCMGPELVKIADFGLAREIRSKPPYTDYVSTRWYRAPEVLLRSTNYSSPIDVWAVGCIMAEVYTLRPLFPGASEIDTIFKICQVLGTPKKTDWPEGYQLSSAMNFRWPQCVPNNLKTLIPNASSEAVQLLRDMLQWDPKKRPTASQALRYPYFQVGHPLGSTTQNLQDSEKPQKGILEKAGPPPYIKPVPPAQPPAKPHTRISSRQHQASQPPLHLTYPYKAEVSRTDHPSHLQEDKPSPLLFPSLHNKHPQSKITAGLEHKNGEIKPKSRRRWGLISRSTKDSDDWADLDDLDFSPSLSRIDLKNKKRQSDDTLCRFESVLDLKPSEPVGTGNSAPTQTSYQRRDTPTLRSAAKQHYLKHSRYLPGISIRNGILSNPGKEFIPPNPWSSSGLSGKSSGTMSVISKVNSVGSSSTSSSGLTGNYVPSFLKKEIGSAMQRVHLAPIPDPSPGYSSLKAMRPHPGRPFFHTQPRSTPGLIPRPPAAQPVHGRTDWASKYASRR
The assay can be described thus: Selectivity interaction (KinomeScan (DiscoverX)) EUB0001079a ICK. The conditions noted are these: at 1 µM.

In assay [11] the target is Mast/stem cell growth factor receptor Kit (Homo sapiens, UniProt P10721). Briefly: Selectivity interaction (Kinase panel (33PanQinase(R) Activity Assay)) EUB0000877a KIT.
Chain of Mast/stem cell growth factor receptor Kit (P10721 whole entry): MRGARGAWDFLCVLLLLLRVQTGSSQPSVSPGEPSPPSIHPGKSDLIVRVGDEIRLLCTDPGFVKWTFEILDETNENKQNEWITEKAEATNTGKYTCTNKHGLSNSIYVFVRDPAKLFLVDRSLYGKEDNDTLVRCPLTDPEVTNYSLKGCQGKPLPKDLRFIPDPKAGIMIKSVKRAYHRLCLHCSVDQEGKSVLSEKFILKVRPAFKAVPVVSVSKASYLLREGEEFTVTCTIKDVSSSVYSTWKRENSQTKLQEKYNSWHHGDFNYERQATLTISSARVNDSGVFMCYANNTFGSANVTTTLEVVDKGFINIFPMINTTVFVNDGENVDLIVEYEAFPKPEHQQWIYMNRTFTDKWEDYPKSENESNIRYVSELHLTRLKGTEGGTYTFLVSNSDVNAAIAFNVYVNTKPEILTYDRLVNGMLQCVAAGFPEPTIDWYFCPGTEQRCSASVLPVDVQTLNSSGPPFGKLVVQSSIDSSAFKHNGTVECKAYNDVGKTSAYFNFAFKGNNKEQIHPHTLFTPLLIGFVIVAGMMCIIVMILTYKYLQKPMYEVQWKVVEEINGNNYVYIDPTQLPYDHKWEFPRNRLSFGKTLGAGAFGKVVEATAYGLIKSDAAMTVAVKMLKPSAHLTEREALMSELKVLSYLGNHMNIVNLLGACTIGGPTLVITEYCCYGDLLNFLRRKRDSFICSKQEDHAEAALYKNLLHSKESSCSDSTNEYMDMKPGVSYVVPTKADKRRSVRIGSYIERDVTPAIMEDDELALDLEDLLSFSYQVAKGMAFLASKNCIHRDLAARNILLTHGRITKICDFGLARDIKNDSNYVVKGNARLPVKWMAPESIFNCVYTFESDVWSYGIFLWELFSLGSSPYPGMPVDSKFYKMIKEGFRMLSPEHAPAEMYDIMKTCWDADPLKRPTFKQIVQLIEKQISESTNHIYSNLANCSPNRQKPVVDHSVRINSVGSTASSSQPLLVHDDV
Assay [12] deals with T3, Aurora kinase A (Homo sapiens) (UniProt O14965).
T3 sequence (whole entry): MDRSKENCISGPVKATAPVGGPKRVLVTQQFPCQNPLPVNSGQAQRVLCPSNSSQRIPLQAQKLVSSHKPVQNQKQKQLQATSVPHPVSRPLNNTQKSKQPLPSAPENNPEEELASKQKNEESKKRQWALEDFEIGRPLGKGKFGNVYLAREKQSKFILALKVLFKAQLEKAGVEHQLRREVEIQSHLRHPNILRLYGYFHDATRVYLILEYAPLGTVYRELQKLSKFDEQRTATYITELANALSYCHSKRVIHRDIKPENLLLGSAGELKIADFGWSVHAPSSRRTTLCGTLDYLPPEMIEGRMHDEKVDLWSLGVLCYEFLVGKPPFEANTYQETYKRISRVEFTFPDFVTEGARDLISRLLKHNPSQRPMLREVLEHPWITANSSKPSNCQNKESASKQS
Briefly: Selectivity interaction (ActivX KiNativ screen (kinase selectivity in THP-1 cell lysates)) EUB0000639a STK6. The class given is subcellular. The conditions noted are these: lysate, at 0.04 µM.

Assay [13] has as its target Calcium/calmodulin-dependent protein kinase type II subunit gamma (Homo sapiens) (UniProt Q13555). The assay can be described thus: Selectivity interaction (ActivX KiNativ screen (kinase selectivity in THP-1 cell lysates)) EUB0000639a CAMK2G. The class given is subcellular. To be noted: lysate.
The target in assay [14] is Serine/threonine-protein kinase MARK1 (Homo sapiens) (UniProt Q9P0L2). Briefly: Selectivity interaction (Upstate Kinase Profiler service (Millipore)) EUB0000056c MARK1. To be noted: at 1 µM.
Chain of Serine/threonine-protein kinase MARK1 (Homo sapiens) (Q9P0L2 whole entry, looked up): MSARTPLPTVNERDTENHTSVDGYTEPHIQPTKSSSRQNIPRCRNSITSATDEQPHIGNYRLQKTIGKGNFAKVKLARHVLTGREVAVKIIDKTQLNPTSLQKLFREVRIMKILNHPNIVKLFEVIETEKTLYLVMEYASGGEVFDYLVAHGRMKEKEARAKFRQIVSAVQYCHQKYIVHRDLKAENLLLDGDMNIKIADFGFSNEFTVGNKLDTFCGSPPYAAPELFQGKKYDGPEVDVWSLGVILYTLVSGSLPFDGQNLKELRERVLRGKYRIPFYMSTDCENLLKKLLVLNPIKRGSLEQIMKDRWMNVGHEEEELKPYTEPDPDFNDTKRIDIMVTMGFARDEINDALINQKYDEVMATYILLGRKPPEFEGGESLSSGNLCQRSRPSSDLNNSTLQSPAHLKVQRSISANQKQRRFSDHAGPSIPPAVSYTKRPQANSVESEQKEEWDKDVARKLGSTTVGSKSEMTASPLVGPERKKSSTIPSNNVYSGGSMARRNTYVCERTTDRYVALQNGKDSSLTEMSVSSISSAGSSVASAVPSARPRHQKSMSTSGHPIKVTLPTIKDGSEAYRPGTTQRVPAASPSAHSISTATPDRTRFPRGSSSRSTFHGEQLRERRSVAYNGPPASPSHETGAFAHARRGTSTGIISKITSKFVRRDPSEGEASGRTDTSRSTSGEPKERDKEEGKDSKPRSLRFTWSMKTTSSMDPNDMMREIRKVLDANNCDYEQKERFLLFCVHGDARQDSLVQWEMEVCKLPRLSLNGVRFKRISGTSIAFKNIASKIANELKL

pIC50: −log10 of the molar value.

As usually defined, the pIC50 is the negative decadic logarithm of the IC50, by convention in mol/L. Lower therefore signals a high IC50.

Chain of Calcium/calmodulin-dependent protein kinase type II subunit gamma (Homo sapiens) (Q13555 whole entry): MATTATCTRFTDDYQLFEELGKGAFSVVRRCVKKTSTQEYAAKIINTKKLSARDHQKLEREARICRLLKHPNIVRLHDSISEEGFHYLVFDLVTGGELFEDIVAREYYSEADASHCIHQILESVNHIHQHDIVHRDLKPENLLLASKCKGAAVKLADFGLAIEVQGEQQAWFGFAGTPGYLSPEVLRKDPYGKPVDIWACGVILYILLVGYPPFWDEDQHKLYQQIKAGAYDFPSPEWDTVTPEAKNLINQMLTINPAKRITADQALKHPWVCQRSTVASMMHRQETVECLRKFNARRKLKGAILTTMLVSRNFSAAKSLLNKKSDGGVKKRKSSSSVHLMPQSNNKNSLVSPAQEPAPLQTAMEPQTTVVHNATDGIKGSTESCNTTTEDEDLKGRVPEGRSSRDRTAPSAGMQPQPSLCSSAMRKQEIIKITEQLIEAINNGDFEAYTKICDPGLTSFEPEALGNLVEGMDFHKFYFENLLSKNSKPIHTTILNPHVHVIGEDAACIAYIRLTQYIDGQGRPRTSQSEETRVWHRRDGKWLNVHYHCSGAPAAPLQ
Chain of Activin receptor type-2A (Homo sapiens) (P27037 whole entry): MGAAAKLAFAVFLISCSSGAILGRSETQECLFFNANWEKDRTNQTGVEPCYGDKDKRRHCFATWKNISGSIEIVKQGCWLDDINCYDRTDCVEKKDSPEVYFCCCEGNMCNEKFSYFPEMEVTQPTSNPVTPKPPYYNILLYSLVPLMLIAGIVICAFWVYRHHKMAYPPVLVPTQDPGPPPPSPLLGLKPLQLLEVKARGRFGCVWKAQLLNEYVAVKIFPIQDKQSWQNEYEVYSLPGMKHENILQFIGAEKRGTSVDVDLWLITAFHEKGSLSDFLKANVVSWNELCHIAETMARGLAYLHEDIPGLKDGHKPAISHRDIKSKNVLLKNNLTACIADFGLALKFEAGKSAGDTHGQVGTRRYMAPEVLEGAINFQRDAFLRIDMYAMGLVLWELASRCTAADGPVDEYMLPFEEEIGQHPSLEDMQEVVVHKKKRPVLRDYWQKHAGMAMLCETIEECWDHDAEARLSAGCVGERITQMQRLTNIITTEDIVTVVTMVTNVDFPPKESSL

For `CN(C)C/C=C/C(=O)Nc1ccc(C(=O)N2CCCC(Nc3ncc(Cl)c(-c4c[nH]c5ccccc45)n3)C2)cc1` (stereo not drawn), the % of control in assay [1] was 96%.
`CNC(=O)Nc1ccc(-c2nc(N3CC4CCC(C3)O4)c3cnn(C4CCC5(CC4)OCCO5)c3n2)cc1`: the % of inhibition was 0% in assay [2], 4% in assay [3], 0% in [4] and 3% in assay [5]. In assay [6], this compound returned a % of control of 95%.
Regarding `O=C(NOC[C@H](O)CO)c1ccc(F)c(F)c1Nc1ccc(I)cc1F`, the % of control in [7] was 86%; in [8] it was 80%.
In turn, `CN(C)CCOc1ccc(-c2nc(-c3ccncc3)c(-c3ccc4c(c3)CC/C4=N\O)[nH]2)cc1` showed a % of control in [9] of 100%.
Compound `Nc1cnc(N2CCc3cc(S(=O)(=O)Nc4c(F)cc(Cl)cc4F)cc(N4CCCC4=O)c32)nc1` [TP-020n] registered a % of control in [10] of 80%.
The compound `CCC(=O)N1CC[C@H](Nc2ncnc3c2CN(c2cnc(OC)c(C(F)(F)F)c2)CC3)C1` [LENIOLISIB] gave a pIC50 in assay [11] of under 5.00.
As for `CC[C@@H]1[C@H](F)C(=O)N[C@@H]1COc1nccc2cc(C(N)=O)c(OC)cc12` [ZIMLOVISERTIB], the % of inhibition is -6.4% in assay [12]; -1% in assay [13] (at 0.01 µM); 3.3% in assay [13] (at 0.04 µM); 10% in assay [13] (at 0.2 µM); 35.2% in assay [13] (at 1 µM); 63% in assay [13] (at 5 µM).
Turning to `Cc1ccc(-c2ccc3c(ccc4sc5c(c43)NC[C@@H](C)NC5=O)n2)cn1`, the % of inhibition in assay [14] stood at 5%.

For the origin of these results see ChEMBL document CHEMBL5465560, “Selectivity Literature for EUbOPEN Chemogenomic Library” (2024).
